By melting point is commonly meant the temperature, or range, at which the solid turns liquid.

The target of one data set is farnesyltransferase (Homo sapiens, UniProt P49356). As to conditions: Hardcastle et al, Tetrahedron Letters 2001, 42(7), 1363-1365; cited from earlier work.
The subject of data set [1] is human umbilical vein endothelial cells (HUVEC). Description: Cell viability in human non-proliferating cells (HUVEC). As to conditions: concentrations up to 500 μM, 72 h of incubation. In kind it is cell-based.
In another data set the test system is Male Swiss mice. Description: Test 1 - Oxazolone-induced delayed hypersensitivity in mice (ear edema). The format is in vivo. As to conditions: topical on right ear, solution in acetone; FIG. 1. The protocol: Test 1—Oxazolone-induced Delayed Hipersensitivity in Mice
Method: Male Swiss mice (25-30 g body weight) were sensitized by the application of a 2% solution of oxazolone (Sigma) in acetone (50 μL) into the shaved abdomen. Seven days later, 25 μL of a 1.5% solution of oxazolone was applied on both surfaces of the right ear of the animals. The left ear served as control and was only treated with the vehicle (acetone). 20 μL of the test compound (dissolved in acetone) or vehicle alone (control) was applied on both sides of the right ear, 24 h before challenge and 1 and 5 h after challenge. To evaluate the edema, mice were killed (by CO2 inhalation) and an 8 mm disc was excised from the right and left ears. The edema was measured by the difference in weight between the two ears and inhibition was expressed as percentage in relation to the control group.

In data set [2] the test system is human peripheral blood mononuclear cells (PBMC). Description: Cell viability in human non-proliferating cells (PBMC). In kind it is cell-based. As to conditions: concentrations up to 500 μM, 72 h of incubation.
Data set [3] deals with immune-deficient BNX mice transplanted with human psoriatic skin. Description: Test 2 - Psoriasis model in immune-deficient BNX mice transplanted with human psoriatic skin. The format is in vivo. As to conditions: topical ointment at the concentration of 0.1%; p<0.01. The text has this:
Test 2—Psoriasis Model in Immune-deficient BNX Mice Transplanted with Human Psoriatic Skin
Method: The goal of this study is to assess the effect of the test compounds on the development of a psoriatic lesion, induced by super-antigen-activated human peripheral blood T-cells, in non-lesional skin from a psoriasis patient transplanted onto immune-deficient BNX mice. Mice (male/female, circa 20 g, 5 mice per group) were transplanted with non-lesional skin biopsies from psoriasis patients. Peripheral blood mononuclear cells from the same patients were isolated and stored in freezer until further use. Transplants were allowed to “lake” for 4 weeks. After this period, transplants were treated topically with test compound or control (vehicle) preparations for 1 week. Then, peripheral blood mononuclear cells from psoriatic patients, previously activated in vitro for 2 days with super-antigen, were injected into the transplants intra-dermally. Transplants were treated with test compound or control preparations for two additional weeks. Transplants were then harvested and epidermal thickness was measured by using computer-aided morphometric analysis.

The subject of the next data set is Male Lewis rats. The data set is described as follows: Test 3 - Inhibition of adjuvant-induced arthritis in the rat. In kind it is in vivo. As to conditions: 10 mg/kg/day p.o. for 28 days. The protocol: Test 3—Inhibition of Adjuvant-induced Arthritis in the Rat
Method: Male Lewis rats with body weight between 140 and 170 g and 7 week-old were used. Before the start of the study animals were acclimated for a period of at least 5 days. Animals were fasted for 18 hours before the study, with water ad libitum. Throughout the study, animals were allowed free access to drinking water, except during observation periods.
Groups of five animals were randomized (Sham, Control and Test compound). The duration of the study was 28 days. Arthritis was induced on day 1 of the study by a single subplantar injection of 0.1 mL of an emulsion prepared with 10 mg Mycobacterium butyricum and 10 mL Freund's incomplete adjuvant (Difco) to the right hindpaw of the animals from the Control (C) and Test compound (T) groups. Sham animals (S) received 0.1 mL Freund's incomplete adjuvant. Test compound was administered daily from day 1 of the study until day 28 at a dose of 10 mg/kg p.o. as a suspension in 1% Tween 80® while the Control group only received the vehicle. On day 28 of the development of arthritis, the volume of the left paw (secondary edema) was determined using a UGO BASILE 7150 plethysmometer. The inhibition of the increase in volume was calculated as follows: % Inh.=100−((T−S)/(C−S))*100 Where: T=Test compound group; C=Control group; and S=Sham group

Data set [4] deals with splenic lymphocytes from C57BL/6 mice stimulated with splenic lymphocytes from CBA mice. The data set is described as follows: Test 4 - Immunosuppression model: murine mixed lymphocyte reaction. The format is cell-based. The protocol:
Test 4—Immunosupression Model: Murine Mixed Lymphocyte Reaction
Method: Immunosuppression was assessed by testing the effects of the compounds on the proliferation of splenic lymphocytes from C57BL/6 mice strain stimulated with splenic lymphocytes from CBA mice strain. Splenic lymphocyte populations were isolated from two mouse strains: CBA (acting as stimulating cells) and C57BL/6 (acting as proliferating cells). Homogenized mouse spleen was filtered and subsequently centrifuged at 250×g for 5 minutes at 4° C. The pellets were resuspended in culture medium (RPMI 1640 supplemented with 5% fetal calf serum and 2% antibiotics) and after repeating this process twice they were adjusted to a final density of 5×10^6 cells/mL. The isolated lymphocytes from CBA strain were treated with mitomycin C to block their proliferation.
In a 96-well plate, solutions of the test compounds or culture medium alone (for the control) were distributed. Next, 5×10^5 C57BL/6 cells and 2.5×10^5 CBA cells were added and incubated for 48 h (37° C., 5% CO2). After this preincubation 1 μCi of [^3H]-thymidine and 0.2 mM unlabeled thymidine were added to each well and the mixture was incubated 24 h. […]
Lymphocyte proliferation was measured as [^3H]-thymidine incorporation into the DNA of responding cells (C57BL/6) using a liquid scintillation counter (LS series, Beckman).

Data set [5] has as its system hamster lung fibroblast cell line (V79 cells). Description: Test 5 - Induction of apoptosis in tumor cells (active caspase-3, flow cytometry). The format is cell-based. As to the method: Test 5: Induction of Apoptosis in Tumor Cells
Method: The ability of the compounds of the invention to induce apoptosis was determined in a hamster lung fibroblast cell line (V79 cells). To determine the induction of apoptosis a commercially available kit was used (CaspaTag™ Caspase-3 (DEVD) Activity Kit, Intergen); this kit detects the presence in the cells of the active form of the enzyme caspase-3, which is an apoptosis marker. V79 cells were incubated for 72 h in culture medium (DMEM supplemented with 2 mM Glutamine and 10% fetal calf serum) in the presence of test compound (30 and 100 μM; solution in phosphate-buffered saline) or vehicle. Next, cells were washed with phosphate-buffered saline, treated with Trypsin-EDTA solution until the cell layer was dispersed and were resuspended in fresh growth medium at a concentration of 10^6 cells/mL. A 300 μL aliquote of each of the samples was transferred to a tube and was incubated with the irreversible, carboxyfluorescein-labeled peptidic caspase-3 inhibitor FAM-DEVD-FMK for 1 hour at 37° C. in 5% CO2 and protecting the tubes from light following the kit's instructions. […] The inhibitor in excess was washed and the cells were then analyzed by flow cytometry at 488 nm.
Background: In flow cytometry, cells or beads pass a laser one at a time.

farnesyltransferase, sequence (P49356 whole entry): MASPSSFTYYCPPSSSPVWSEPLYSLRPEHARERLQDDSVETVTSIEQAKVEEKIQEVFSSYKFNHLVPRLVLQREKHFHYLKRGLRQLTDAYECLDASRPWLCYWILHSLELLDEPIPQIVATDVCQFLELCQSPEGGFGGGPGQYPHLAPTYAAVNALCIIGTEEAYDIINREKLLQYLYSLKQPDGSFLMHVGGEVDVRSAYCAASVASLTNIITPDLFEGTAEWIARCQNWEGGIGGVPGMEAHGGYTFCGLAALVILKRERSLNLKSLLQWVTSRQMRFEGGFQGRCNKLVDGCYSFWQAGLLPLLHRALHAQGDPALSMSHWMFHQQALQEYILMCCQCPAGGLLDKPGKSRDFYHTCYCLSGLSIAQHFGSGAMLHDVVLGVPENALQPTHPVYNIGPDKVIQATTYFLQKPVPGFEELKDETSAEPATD

On to `O=C(O)c1c(O)c(F)c(OCCCF)c(F)c1F` [2,3,5-trifluoro-4-(3-fluoropropoxy)-6-hydroxybenzoic acid], for which the farnesyltransferase inhibition result on farnesyltransferase was “inactive”.
Consider `COC(=O)c1ccc(OCCF)cc1O` [Example 4, Methyl 2-hydroxy-4-(2-fluoroethoxy)benzoate], for which the melting point is 64 °C.
Regarding `O=C(O)c1ccc(OCC(F)(F)C(F)(F)F)cc1O` [Example 6, 2-Hydroxy-4-(2,2,3,3,3-pentafluoropropoxy)benzoic acid], the cell viability result in data set [1] and in data set [2] was “not to affect cell viability” throughout. In the data set on Male Swiss mice, the “inhibition of the edema (difference in weight between the two ears)” value is listed as “concentration-dependent inhibition of the edema”. Also, the “inhibition of the increase of the epidermal thickness induced by intradermal injection of activated mononuclear cells” value in data set [3] is “significant inhibition”. In addition, the “inhibition of the increase in volume of the left paw (secondary edema)” value with Male Lewis rats is listed as “significant inhibition”. In addition, the “inhibition of mice splenic lymphocyte proliferation ([3H]-thymidine incorporation)” value in data set [4] (300 μM) is on record as “completely inhibited”. Further, in data set [4] (Mus musculus, Splenic lymphocyte, 100 μM, read-out: inhibition of the proliferation of mice splenic lymphocytes), the inhibition at 100 µM is 60%. Further, the “number of cells containing the active form of caspase-3 (apoptotic cells)” value in data set [5] (30 and 100 μM, 72 h incubation, FIG. 2) is listed as “concentration-dependent increase”. The “morphological observation of the cells (activation of apoptosis)” value in [5] (V79 cells) is “presence of cell membrane blebbing and the formation of apoptotic bodies”.

(Values after patent publication US7589125B2, “2,4-dihydroxybenzoic acid derivatives” (Palau Pharma, S.A., priority 2002, dated 2009).)
